Experimental data published in patent US8912144B2, “Method for treating stroke via administration of NEP1-40 and inosine” (Children's Medical Center Corporation, priority 2003, dated 2014).

Test system: corticospinal neurons (CSNs/CSMNs)
Test: Laser-capture microdissection and Illumina microarray gene expression in corticospinal neurons contralateral to stroke
Format: in vivo, rat
Description: In a separate group of animals (n=20), layer V pyramidal cells of the sensorimotor cortex were retrogradely labeled by injecting Alexa-Fluor-488-conjugated cholera toxin B subunit (CTB; 300 U/μl in sterile saline) into the cervical spinal cord. For this, animals were anesthetized with a combination of ketamine and Domitor (medetomidine) and a laminectomy was performed at the cervical level of the spinal cord (C2-C4). CTB was stereotaxically delivered into four sites lateral to the corticospinal tract. Injections (1.3 μl) were spaced 1 mm apart on the rostro-caudal axis, and were made 0.5 mm to the left and right of the midline. After allowing two weeks for transport of the tracer, we performed either sham surgery with no treatment (n=6) or stroke surgery combined with saline (n=3) or inosine (n=4) treatment as described above. Seven days later, animals were decapitated under transient gas anesthesia, brains were removed and rinsed in cold RPMI medium, and a tissue block containing the sensorimotor cortex was dissected and placed in OCT Tissue Tek Medium (Sakura Finetek USA Inc., CA) on dry ice within five minutes of death. Ten μm sections were cut onto precleaned Gold Seal RITE-ON glass slides (Gold Seal Prod-ucts, Portsmouth, N.H.), placed on dry ice, and rapidly stored at −80° C.
Slide-mounted sections were thawed and dehydrated in RNAse-free ethanol gradients and xylene. Retro-gradely labeled, fluorescent cortical pyramidal cells in the undamaged hemisphere were individually captured using the Arcturus VERITAS system. ≧500 cells were collected from each animal and stored in Arcturus extraction buffer at −80° C. Total RNA was extracted from cells using the Micro-to-Midi TotalRNA Purification System (Invitrogen, Carlsbad Calif.) and double-amplified using the TargetAmp 2-Round Aminoallyl-aRNA Amplification kit 1.0 (Epicentre, Madison, Wis.). Amplified RNA was checked for average fragment length using the Agilent RNA 6000 Nano LabChip kit (Agilent Technologies, Santa Clara, Calif.) and then biotinylated and hybridized (1 μg) on Illumina RatRef-12 Expression BeadChip arrays (Illumina, San Diego Calif.), querying the expression of >22,000 RefSeq-curated rat transcripts. Results were obtained from a total of 15 samples representing 6 untreated controls, 4 animals with stroke treated with saline and 5 animals with stroke treated with inosine. Slides were processed and scanned with Illumina BeadStation platform according to the manufacturer protocol.
Raw data was analyzed using Bioconductor packages (www.bioconductor.org, (Gentleman et al., 2004)). Low level quality-control analysis was performed using inter-array Pearson correlation and clustering based on variance. Two arrays (1 saline and 1 inosine-treated) were outliers and were excluded from the analysis. Data was normalized using quantile normalization, and analysis of differential expression was performed using a linear model fitting (LIMMA package, (Smyth, 2005). Differentially expressed genes were classified according to gene ontology using Bioconductor packages and online tools (DAVID, http://david.abcc.ncifcrf.gov/). Pathway analysis was carried out using Ingenuity Pathway Analysis (Ingenuity Systems, www.ingenuity.com).

In the case of `OC[C@H]1O[C@@H](n2cnc3c(O)ncnc32)[C@H](O)[C@@H]1O` [inosine], the “Signal Intensity, MGC94053” value (ILMN_53763, inosine after stroke) is reported as 469, the “Fold-Induction Stroke, ino vs. cntrl, Cnot7” value (ILMN_53955) is reported as 0.60 and the “Signal Intensity, Cnot7” value (ILMN_53955, inosine after stroke) is reported as 427. The “Fold-Induction Stroke, ino vs. cntrl, Rnf11” value (ILMN_54109) was 0.49, the “Signal Intensity, Rnf11” value (ILMN_54109, inosine after stroke) was 825 and the “Fold-Induction Stroke, ino vs. cntrl, Scara3” value (ILMN_54123) was 0.78. For the same compound, the “Signal Intensity, Scara3” value (ILMN_54123, inosine after stroke) was 470, the “Fold-Induction Stroke, ino vs. cntrl, Gabarapl2” value (ILMN_54140) was 0.75 and the “Signal Intensity, Gabarapl2” value (ILMN_54140, inosine after stroke) was 1324. For the same compound, the “Fold-induction CSMNs: Vim” value (ILMN_54242, over and above inosine's effect of decreasing stroke-induced changes) was 1.96 fold, the “Fold-Induction Stroke, ino vs. cntrl, LOC501145” value (ILMN_54288) was 0.70 and the “Signal Intensity, LOC501145” value (ILMN_54288, inosine after stroke) was 626. The “Fold-Induction Stroke, ino vs. cntrl, Echdc1” value (ILMN_54458) was 0.67, the “Signal Intensity, Echdc1” value (ILMN_54458, inosine after stroke) was 531 and the “Fold-Induction Stroke, ino vs. cntrl, LOC498407” value (ILMN_54747) was 0.64. For the same compound, the “Signal Intensity, LOC498407” value (ILMN_54747, inosine after stroke) was 1261, the “Fold-Induction Stroke, ino vs. cntrl, Fuca2” value (ILMN_55057) was 0.56 and the “Signal Intensity, Fuca2” value (ILMN_55057, inosine after stroke) was 662. The “Fold-Induction Stroke, ino vs. cntrl, Grm3” value (ILMN_55270) was 0.50, the “Signal Intensity, Grm3” value (ILMN_55270, inosine after stroke) was 387 and the “Fold-induction CSMNs: Rnaset2” value (ILMN_55431, over and above inosine's effect of decreasing stroke-induced changes) was 1.88 fold. The “Fold-Induction, complement cascade gene C1qg” value (ILMN_55502, LCM-captured CSMNs contralateral a stroke) was 3.96 fold, the “Fold-induction CSMNs: C1qg” value (ILMN_55502, over and above inosine's effect of decreasing stroke-induced changes) was 2.73 fold and the “Fold-Induction Stroke, ino vs. cntrl, Map2k4” value (ILMN_55667) was 0.65. For the same compound, the “Signal Intensity, Map2k4” value (ILMN_55667, inosine after stroke) was 9089, the “Fold-Induction Stroke, ino vs. cntrl, LOC498618” value (ILMN_55685) was 0.49 and the “Signal Intensity, LOC498618” value (ILMN_55685, inosine after stroke) was 3089. The “Fold-Induction, complement cascade gene C1s” value (ILMN_55706, LCM-captured CSMNs contralateral a stroke) was 2.07 fold, the “Fold-induction CSMNs: C1s” value (ILMN_55706, over and above inosine's effect of decreasing stroke-induced changes) was 2.03 fold and the “Fold-induction CSMNs: Bzrp” value (ILMN_55731, over and above inosine's effect of decreasing stroke-induced changes) was 2.38 fold. The “Fold-Induction Stroke, ino vs. cntrl, Klhl2” value (ILMN_55879) was 0.78, the “Signal Intensity, Klhl2” value (ILMN_55879, inosine after stroke) was 516 and the “Fold-Induction Stroke, ino vs. cntrl, Tceal1” value (ILMN_55905) was 0.57. For the same compound, the “Signal Intensity, Tceal1” value (ILMN_55905, inosine after stroke) was 286, the “Fold-Induction Stroke, ino vs. cntrl, LOC502317” value (ILMN_55909) was 0.40 and the “Signal Intensity, LOC502317” value (ILMN_55909, inosine after stroke) was 689. For the same compound, the “Fold-Induction Stroke, ino vs. cntrl, Nr2f1” value (ILMN_55914) was 0.52, the “Signal Intensity, Nr2f1” value (ILMN_55914, inosine after stroke) was 526 and the “Fold-Induction Stroke, ino vs. cntrl, Slc16a1” value (ILMN_55995) was 0.56. For the same compound, the “Signal Intensity, Slc16a1” value (ILMN_55995, inosine after stroke) was 827, the “Fold-Induction Stroke, ino vs. cntrl, Tpt1” value (ILMN_56078) was 0.89 and the “Signal Intensity, Tpt1” value (ILMN_56078, inosine after stroke) was 11229. The “Fold-Induction Stroke, ino vs. cntrl, Acsl3” value (ILMN_56170) was 0.50, the “Signal Intensity, Acsl3” value (ILMN_56170, inosine after stroke) was 389 and the “Fold-Induction Stroke, ino vs. cntrl, Scn1a” value (ILMN_56183) was 0.88. For the same compound, the “Signal Intensity, Scn1a” value (ILMN_56183, inosine after stroke) was 517, the “Fold-Induction Stroke, ino vs. cntrl, Cetn3” value (ILMN_56556) was 0.63 and the “Signal Intensity, Cetn3” value (ILMN_56556, inosine after stroke) was 649. For the same compound, the “Fold-Induction Stroke, ino vs. cntrl, Zfp68” value (ILMN_56593) was 0.59, the “Signal Intensity, Zfp68” value (ILMN_56593, inosine after stroke) was 727 and the “Fold-Induction Stroke, ino vs. cntrl, Pnrc1” value (ILMN_56710) was 0.65. For the same compound, the “Signal Intensity, Pnrc1” value (ILMN_56710, inosine after stroke) was 626, the “Fold-Induction Stroke, ino vs. cntrl, RGD1308082” value (ILMN_56896) was 0.62 and the “Signal Intensity, RGD1308082” value (ILMN_56896, inosine after stroke) was 428. The “Fold-Induction Stroke, ino vs. cntrl, Scg3” value (ILMN_56986) was 0.69, the “Signal Intensity, Scg3” value (ILMN_56986, inosine after stroke) was 870 and the “Fold-Induction Stroke, ino vs. cntrl, Plp” value (ILMN_57073) was 0.51. The “Signal Intensity, Plp” value (ILMN_57073, inosine after stroke) was 1222, the “Fold-induction CSMNs: Serpinb1a” value (ILMN_57422, over and above inosine's effect of decreasing stroke-induced changes) was 2.41 fold and the “Fold-Induction Stroke, ino vs. cntrl, Lisch7” value (ILMN_57520) was 0.69. For the same compound, the “Signal Intensity, Lisch7” value (ILMN_57520, inosine after stroke) was 484, the “Fold-Induction Stroke, ino vs. cntrl, Olfm3” value (ILMN_57553) was 0.62 and the “Signal Intensity, Olfm3” value (ILMN_57553, inosine after stroke) was 473. For the same compound, the “Fold-Induction Stroke, ino vs. cntrl, Vmp1” value (ILMN_57554) was 0.57, the “Signal Intensity, Vmp1” value (ILMN_57554, inosine after stroke) was 1305 and the “Fold-Induction Stroke, ino vs. cntrl, Sc4mol” value (ILMN_57630) was 0.52. The “Signal Intensity, Sc4mol” value (ILMN_57630, inosine after stroke) was 271, the “Fold-Induction Stroke, ino vs. cntrl, RGD1308373” value (ILMN_57697) was 0.66 and the “Signal Intensity, RGD1308373” value (ILMN_57697, inosine after stroke) was 2921. The “Fold-Induction Stroke, ino vs. cntrl, Gucy1b3” value (ILMN_57719) was 0.57, the “Signal Intensity, Gucy1b3” value (ILMN_57719, inosine after stroke) was 3956 and the “Fold-Induction Stroke, ino vs. cntrl, Tnnc2” value (ILMN_57928) was 0.48. The “Signal Intensity, Tnnc2” value (ILMN_57928, inosine after stroke) was 650.
